Test results taken from paper PMC9090415, “Discovery of small molecule inhibitors of Plasmodium falciparum apicoplast DNA polymerase” (Journal of Enzyme Inhibition and Medicinal Chemistry, 2022).

Target: P. falciparum apicoplast DNA polymerase (Pf-apPOL) (Plasmodium falciparum, UniProt Q8ILY1)
Assay: Fluorescence-based high-throughput DNA polymerase assay (molecular beacon), primary screen and dose-response
Format: biochemical
Conditions: for DNA Pol: 90 min, 10 µM
In short: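 Single-point screening used 10 µM compound with 20 nM polymerase, 20 nM hairpin substrate and 6 µM dNTPs for 90 min at 25 °C. Confirmatory titrations (2.5–80 µM) followed fluorescence at three times, and IC50 was derived from a fit including a cooperativity term n.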

Chain of P. falciparum apicoplast DNA polymerase (Pf-apPOL) (Q8ILY1 entry or part of it): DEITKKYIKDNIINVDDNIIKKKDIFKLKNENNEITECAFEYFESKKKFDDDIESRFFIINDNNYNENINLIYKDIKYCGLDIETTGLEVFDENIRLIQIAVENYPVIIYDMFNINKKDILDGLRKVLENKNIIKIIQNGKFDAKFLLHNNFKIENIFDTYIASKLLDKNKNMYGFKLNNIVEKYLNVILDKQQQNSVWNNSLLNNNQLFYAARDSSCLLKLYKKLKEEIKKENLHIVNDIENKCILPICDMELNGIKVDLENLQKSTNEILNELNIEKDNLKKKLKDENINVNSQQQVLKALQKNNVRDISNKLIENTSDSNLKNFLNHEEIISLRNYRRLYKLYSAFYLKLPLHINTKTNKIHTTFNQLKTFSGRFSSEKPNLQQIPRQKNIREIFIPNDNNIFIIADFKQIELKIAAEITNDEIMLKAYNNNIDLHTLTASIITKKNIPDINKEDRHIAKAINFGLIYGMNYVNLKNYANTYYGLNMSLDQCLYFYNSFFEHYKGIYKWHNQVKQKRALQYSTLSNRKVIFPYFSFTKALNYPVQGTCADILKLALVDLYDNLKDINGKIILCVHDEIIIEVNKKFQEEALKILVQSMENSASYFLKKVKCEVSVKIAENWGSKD

O=c1[nH]c2ccc(Br)cc2c(-c2ccccc2)c1C1=NNC(c2ccco2)C1 (centres unmarked) [KU0045540]
% inhibition Apo pol 10' (DRC-1, concentration 2.5): 38.7065%
% inhibition Apo pol 10' (DRC-1, concentration 5): 32.1153%
% inhibition Apo pol 10' (DRC-1, concentration 10): 58.5243%
% inhibition Apo pol 10' (DRC-1, concentration 20): 75.2705%
% inhibition Apo pol 10' (DRC-1, concentration 40): 80.4182%
% inhibition Apo pol 10' (DRC-1, concentration 80): 78.0702%
% inhibition Apol 90' (DRC-1, 90', concentration 2.5): 12.887%
% inhibition Apol 90' (DRC-1, 90', concentration 5): 9.899%
% inhibition Apol 90' (DRC-1, 90', concentration 10): 32.8734%
% inhibition Apol 90' (DRC-1, 90', concentration 20): 57.4465%
% inhibition Apol 90' (DRC-1, 90', concentration 40): 76.3337%
% inhibition Apol 90' (DRC-1, 90', concentration 80): 82.7097%
% inhibition apPOL 180' (DRC-1, 180', concentration 2.5): 0.7615%
% inhibition apPOL 180' (DRC-1, 180', concentration 5): -2.038%
% inhibition apPOL 180' (DRC-1, 180', concentration 10): 16.3913%
% inhibition apPOL 180' (DRC-1, 180', concentration 20): 40.539%
% inhibition apPOL 180' (DRC-1, 180', concentration 40): 67.9853%
% inhibition apPOL 180' (DRC-1, 180', concentration 80): 81.6451%
% inhibition Apo pol 5' (DRC-2, 5', concentration 2.5 (unit not given)): 15%
% inhibition Apo pol 5' (DRC-2, 5', concentration 20 (unit not given)): 65%
% inhibition Apo pol 5' (DRC-2, 5', concentration 40 (unit not given)): 65%
% inhibition Apol 40' (DRC-2, 40', concentration 2.5 (unit not given)): 15%
% inhibition Apol 40' (DRC-2, 40', concentration 10 (unit not given)): 49%
% inhibition Apol 40' (DRC-2, 40', concentration 20 (unit not given)): 77%
% inhibition ApPOL 90' (DRC-2, 90', concentration 10 (unit not given)): 49%
% inhibition ApPOL 90' (DRC-2, 90', concentration 20 (unit not given)): 77%
% inhibition ApPOL 90' (DRC-2, 90', concentration 80 (unit not given)): 72%
% inhibition apPOL 180' (DRC-2, 180', concentration 20 (unit not given)): 72%
% inhibition Apo pol 5' (DRC-2, 5', concentration 2.5): 15%
% inhibition Apo pol 5' (DRC-2, 5', concentration 5): 27%
% inhibition Apo pol 5' (DRC-2, 5', concentration 10): 40%
% inhibition Apo pol 5' (DRC-2, 5', concentration 20): 65%
% inhibition Apo pol 5' (DRC-2, 5', concentration 40): 65%
% inhibition Apo pol 5' (DRC-2, 5', concentration 80): 39%
% inhibition Apol 40' (DRC-2, 40', concentration 2.5): 15%
% inhibition Apol 40' (DRC-2, 40', concentration 5): 33%
% inhibition Apol 40' (DRC-2, 40', concentration 10): 49%
% inhibition Apol 40' (DRC-2, 40', concentration 20): 77%
% inhibition Apol 40' (DRC-2, 40', concentration 40): 81%
% inhibition Apol 40' (DRC-2, 40', concentration 80): 67%
% inhibition ApPOL 90' (DRC-2, 90', concentration 2.5): 15%
% inhibition ApPOL 90' (DRC-2, 90', concentration 2.5 (unit not given)): 15%
% inhibition ApPOL 90' (DRC-2, 90', concentration 5): 31%
% inhibition ApPOL 90' (DRC-2, 90', concentration 10): 49%
% inhibition ApPOL 90' (DRC-2, 90', concentration 20): 77%
% inhibition ApPOL 90' (DRC-2, 90', concentration 40): 83%
% inhibition ApPOL 90' (DRC-2, 90', concentration 80): 72%
% inhibition apPOL 180' (DRC-2, 180', concentration 2.5): 11%
% inhibition apPOL 180' (DRC-2, 180', concentration 5): 22%
% inhibition apPOL 180' (DRC-2, 180', concentration 10): 41%
% inhibition apPOL 180' (DRC-2, 180', concentration 20): 72%
% inhibition apPOL 180' (DRC-2, 180', concentration 40): 82%
% inhibition apPOL 180' (DRC-2, 180', concentration 80): 75%
DNA Pol (primary screen value of the 186 hits, unit not given): 43
DNA Pol (primary screen value, head "DNA Pol", unit not given): 43

CC(C)CCNC(=O)c1cnn2c(O)cc(CSc3ccc(Cl)cc3)nc12 [Molecule 101, CC(CCNC(=O)c1cnn2c1nc(CSc1ccc(cc1)Cl)cc2O)C]
DNA Pol ('DNA Pol' of the 186 hits list (screen value)): 47
% inhibition Apo pol 10' (DRC-1, conc 2.5): 0.1018%
% inhibition Apo pol 10' (DRC-1, conc 5): 10.5875%
% inhibition Apo pol 10' (DRC-1, conc 10): 55.0331%
% inhibition Apo pol 10' (DRC-1, conc 20): 79.7694%
% inhibition Apo pol 10' (DRC-1, conc 40): 93.5546%
% inhibition Apo pol 10' (DRC-1, conc 80): 97.7054%
% inhibition Apol 90' (DRC-1, 90', conc 2.5): -5.869%
% inhibition Apol 90' (DRC-1, 90', conc 5): 6.076%
% inhibition Apol 90' (DRC-1, 90', conc 10): 52.4114%
% inhibition Apol 90' (DRC-1, 90', conc 20): 78.3109%
% inhibition Apol 90' (DRC-1, 90', conc 40): 89.1904%
% inhibition Apol 90' (DRC-1, 90', conc 80): 96.2635%
% inhibition apPOL 180' (DRC-1, 180', conc 2.5): -11.3834%
% inhibition apPOL 180' (DRC-1, 180', conc 5): -2.604%
% inhibition apPOL 180' (DRC-1, 180', conc 10): 39.1813%
% inhibition apPOL 180' (DRC-1, 180', conc 20): 71.0945%
% inhibition apPOL 180' (DRC-1, 180', conc 40): 85.4085%
% inhibition apPOL 180' (DRC-1, 180', conc 80): 94.6304%
% inhibition Apo pol 5' (DRC-2, 5', conc 2.5): -1.9%
% inhibition Apo pol 5' (DRC-2, 5', conc 5): 20%
% inhibition Apo pol 5' (DRC-2, 5', conc 10): 55%
% inhibition Apo pol 5' (DRC-2, 5', conc 20): 59%
% inhibition Apo pol 5' (DRC-2, 5', conc 40): 66%
% inhibition Apo pol 5' (DRC-2, 5', conc 80): 69%
% inhibition Apo pol 5' (DRC-2, 5', concentration 40): 66%
% inhibition Apo pol 5' (DRC-2, 5', concentration 80): 69%
% inhibition Apol 40' (DRC-2, 40', conc 2.5): -1.08%
% inhibition Apol 40' (DRC-2, 40', conc 5): 24%
% inhibition Apol 40' (DRC-2, 40', conc 10): 65%
% inhibition Apol 40' (DRC-2, 40', conc 20): 69%
% inhibition Apol 40' (DRC-2, 40', conc 40): 76%
% inhibition Apol 40' (DRC-2, 40', conc 80): 81%
% inhibition Apol 40' (DRC-2, 40', concentration 20): 69%
% inhibition ApPOL 90' (DRC-2, 90', conc 2.5): -2.68%
% inhibition ApPOL 90' (DRC-2, 90', conc 5): 22%
% inhibition ApPOL 90' (DRC-2, 90', conc 10): 66%
% inhibition ApPOL 90' (DRC-2, 90', conc 20): 70%
% inhibition ApPOL 90' (DRC-2, 90', conc 40): 77%
% inhibition ApPOL 90' (DRC-2, 90', conc 80): 83%
% inhibition ApPOL 90' (DRC-2, 90', concentration 10): 66%
% inhibition apPOL 180' (DRC-2, 180', conc 2.5): -4.21%
% inhibition apPOL 180' (DRC-2, 180', conc 5): 16%
% inhibition apPOL 180' (DRC-2, 180', conc 10): 60%
% inhibition apPOL 180' (DRC-2, 180', conc 20): 66%
% inhibition apPOL 180' (DRC-2, 180', conc 40): 75%
% inhibition apPOL 180' (DRC-2, 180', conc 80): 85%
% inhibition apPOL 180' (DRC-2, 180', concentration 20): 66%
DNA Pol (primary screen value, "DNA Pol"): 47
